Common to all, as to type: in vivo
The subject of data set [1] is larvae of brown rice planthopper (Nilaparvata lugens). The data set can be described thus: Insecticidal effect on larvae of brown rice planthopper (spray, Test Example 1). The conditions noted are these: 500 ppm, emulsion sprayed, 4th instar larvae, 25° C., after 5 days; agonizing insect counted as 1/2 dead. The protocol: (§1) Insecticidal Effect on Larvae of Brown Rice Planthopper (Nilaparvata lugens)
A rice seedling was planted in a glass cylinder (inner diameter: 3 cm×length: 17 cm), and five 4th instar larvae of brown rice planthopper were set free therein. An agricultural and horticultural insecticide of the invention was prepared in accordance with Formulation Example 3 and diluted with water, and 0.5 ml of the resulting emulsion was sprayed into the cylinder by means of a spraying tower (manufactured by Mizuho Rika) (duplicates at a concentration). The cylinder was kept in a constant temperature room at 25° C., and the mortality and agony of the larvae were examined after 5 days from the treatment to obtain a death rate (%) taking an agonizing insect as a ½ dead insect. The results obtained are shown in Table 2 (the compound numbers in Table 2 correspond to the numbers in Table 1).

Data set [2] concerns larvae of diamond back moth (Plutella xylostella). The data set is described as follows: Insecticidal effect on larvae of diamond back moth (leaf disc, Test Example 2). The conditions noted are these: 500 ppm, cabbage leaf disc soaked 1 minute, 3-instar larvae, 25° C., after 4 days. The protocol: Insecticidal Effect on Larvae of Diamond Back Moth (Plutella xylostella)
(§2) A disc (6 cm in diameter) cut out of a cabbage leaf was soaked for 1 minute in an aqueous suspension of the agricultural and horticultural insecticide of the invention prepared in accordance with Formulation Example 1, air-dried, and placed in a plastic cup (inner diameter: 7 cm). Five 3-instar larvae of Plutella xylostella were set free in the cup (duplicates at a concentration). The cup was kept in a constant temperature room at 25° C., and the death and agony of the larvae were examined after 4 days from the treatment to obtain a death rate (%) taking an agonizing insect as a ½ dead insect. The results obtained are shown in Table 3 (the compound numbers in the Table below correspond to the numbers in Table 1).

Data set [3] concerns imagoes of adzuki bean weevil (Callosobruchus chinensis). The data set can be described thus: Insecticidal effect on imagoes of adzuki bean weevil (spray, Test Example 4). The conditions noted are these: 500 ppm, emulsion sprayed, 25° C., after 4 days. As to the method: Insecticidal Effect on Imagoes of Adzuki Bean Weevil (Callosobruchus chinensis)
Two adzuki beans were put in a glass cylinder (inner diameter: 3 cm×length: 15 cm), and 10 imagoes of Callosobruchus chinensis were set free therein. An agricultural and horticultural insecticide of the invention was prepared in accordance with Formulation Example 3 and diluted with water, and 0.3 ml of the resulting emulsion was sprayed in the glass cylinder by means of a spray tower (manufactured by Mizuho Rika) (duplicates at a concentration). The cylinder was kept in a constant temperature room at 25° C., and the mortality and agony of the larvae were examined after 4 days from the treatment to obtain a death rate (%) taking an agonizing insect as a ½ dead insect. The results obtained are shown in Table 5 (the compound numbers in the Table correspond to the numbers in Table 1).

Data set [4] concerns larvae of green peach aphid (Myzus persicae). The data set can be described thus: Insecticidal effect on larvae of green peach aphid (leaf dip, Test Example 5). The conditions noted are these: 500 ppm, leaves dipped about 5 seconds, 25° C., 4th day after treatment. As to the method: Insecticidal Effect on Larvae of Green Peach Aphid (Myzus persicae)
Water was put in a screw bottle (volume: 10 ml), and a leafstalk of Japanese radish was placed therein and inoculated with 5 to 6 imagoes of Myzus persicae per leave. After the inoculation, the bottle was put in a glass cylinder (diameter: […]; height: 15 cm) with a mesh cover, and the insects were let to proliferate in a constant temperature room kept at 25° C. for 3 days. The imagoes on the leaves were removed, and the leaves were dipped in an aqueous dilusion of an agricultural and horticultural insecticide prepared of the invention in accordance with Formulation Example 3 for about 5 seconds and then returned into the glass cylinder (duplicates at a concentration). The cylinder was kept in the constant temperature room at 25° C., and the number of the insects on the leaves was counted on the 4th day after the treatment to obtain a death rate (%). The results obtained are shown in Table 6 (the compound numbers in the Table correspond to the numbers in Table 1).

The test system of data set [5] is larvae of brown rice planthopper (Nilaparvata lugens). The data set can be described thus: Insecticidal effect on larvae of brown rice planthopper, rice roots in agent solution (systemic, Test Example 6). The conditions noted are these: for Death Rate (%) at Each Concentration of Active Ingrediet: 4th day; for insecticidal activity through systemic property (in words): summary of root-uptake test against brown rice planthopper. The protocol:
as §1
Roots of young rice seedlings (height: about 10 cm) planted in a plastic cup were washed with water and soil was washed away so as not to damage the fine roots. The stem was pinched by a urethane tip (diameter: 3 cm, height: 2 cm) having a cut line and the roots were inserted into an Erlenmeyer flask to which 50 ml of an agent solution (an aqueous diluted solution of agricultural and horticultural insecticide of the invention prepared in accordance with Formulation Example 1) was placed beforehand (2 to 3 young rice seedlings/flask). The urethane tip was wedged into the mouse of the flask to fix the rice seedlings. A glass tube (diameter: 3 cm, height: 5 cm) was placed thereon, wedged into the urethane tip, and fixed with a tape. The flask in such state was kept in a constant temperature room at 25° C. for 3 days. Five larvae of brown rice planthopper were placed in the glass tube and then the tube was capped with a urethane tip, followed by keeping in the constant temperature room at 25° C. (duplicates at a concentration). The mortality and agony of the larvae were examined on 4th day after the treatment to obtain a death rate (%) taking an agonizing insect as a ½ dead insect. This test was carried out on three agent solutions different in the concentration of the active ingredient. The results are shown in Table 7 (the compound numbers in the table correspond to the numbers in Table 1).
As comparative compounds I to V, each compound having a structure shown below (Compound I described in Japanese Patent Laid-Open No. 316771/1988, Compounds II and III described in Examples of WO9845274, and Compounds IV and V included in the claim of WO9845274 but not included in the claim of the present application) was similarly subjected to the test. [drawing 36]
Brown rice planthopper (Nilaparvata lugens) is a highly problematic pest insect species which is harmful as described in Test Example 1, but a sufficient effect can not be attained by the application method of spraying an agent to stems and leafs, provided that the detection is delayed or that an enough amount of the agent is not spread to the roots.
Since this insect species has a characteristic of making its habitat around the roots of rice plant or the like and harming the plant through sucking fluid, more efficient method of controlling the insect may be a method of treating the surface of soil with an agent (granule treatment) before the outbreak of the species occurs widely. However, in order to attain a high controlling effect, a systemic property (a penetrating and migrating property) into a plant body is required as the nature of the agent.

Data set [6] relates to Oryzias latipes. The data set can be described thus: Test on toxicity to fish using Oryzias latipes (Test Example 7). The settings on record: death rate, 0.5 ppm aqueous solution, adult Oryzias latipes, after 48 hours. As to the method:
Test on Toxicity to Fish Using Oryzias latipes
This test example is one example for examining safety of agricultural and horticultural insecticides to the environment.
Ten mg of each compound was dissolved in 1 ml of dimethyl sulfoxide and a 0.05 ml portion thereof was added to a glass beaker containing 1 liter of distilled water to obtain a 0.5 ppm aqueous solution. Into the aqueous solution was put five fishes of Oryzias latipes (adult, average weight: about 360 mg) and the mortality was examined after 48 hours to calculate a death rate (%) (5 fishes per 1 lot/beaker, single run). The results are shown in Table 8 (the compound numbers in the table correspond to the numbers in Table 1).
Similar to Test Example 6, Compound I described in Japanese Patent Laid-Open No. 316771/1988, Compounds II and III described in Examples of WO9845274, and Compounds IV and V included in the claim of WO9845274 but not included in the claim of the present application were subjected to the test, as comparative compounds.

Data set [7] concerns larvae of common cutworm (Spodoptera litura). The data set can be described thus: Insecticidal effect on larvae of common cutworm (leaf disc, Test Example 3). The conditions noted are these: 500 ppm, cabbage leaf disc soaked 1 minute, 3-instar larvae, 25° C., after 5 days. As to the method: Insecticidal Effect on Larvae of Common Cutworm (Spodoptera litura)
as §2, with “suspension of an agricultural and” for “suspension of the agricultural and”, “larvae of Spodoptera litura were set” for “larvae of Plutella xylostella were set”, “examined after 5 days from” for “examined after 4 days from”, “in Table 4 (the compound” for “in Table 3 (the compound”

For data set [8], the system named is cat flea. The data set is described as follows: Insecticidal effect on cat flea (treated filter, Test Example 8). The settings on record: 0.7 mg/filter; mortality examined on 1st day and 2nd day after treatment. The source says:
Insecticidal Effect on Cat Flea
After drying, the filter was placed on the bottom of a cylinder (diameter: 10 cm×height: 30 cm). Ten fleas were set free therein and the mortality was examined on 1st day and 2nd day after the treatment to calculate a death rate (%) based on the results. The results are shown in Table 9 (the compound numbers in the table correspond to the numbers in Table 1).

[9] abbreviates: 0.2 ppm agent solution at rice roots.
Setting [10] is: 0.8 ppm agent solution at rice roots.
Where [11] appears, read: 3.1 ppm agent solution at rice roots.

With `C[S+]([O-])c1c(C#N)nn(-c2c(Cl)cc(C(F)(F)F)cc2Cl)c1NCc1cnccn1` (stereo not drawn) [Compound 1, 1-(2,6-dichloro-4-trifluoromethylphenyl)-4-methylsulfinyl-5-(pyrazin-2-ylmethylamino)pyrazole-3-carbonitrile], the “Death Rate (%)” value in data set [1], in data set [2], in data set [3] and in data set [4] was 100% each time. For the same compound, the “Death Rate (%) at Each Concentration of Active Ingrediet” value (“Death Rate (%) at Each Concentration” below) in data set [5] (setting [9]), in data set [5] (setting [10]) and in data set [5] (setting [11]) was 100% each time. Besides, the “Toxicity to fish (%)” value in data set [6] is recorded as 0%.
For “1-(2,6-dichloro-4-trifluoromethylphenyl)-4-trifluoromethylsulfinyl-5-(1-oxy-pyridin-3-ylmethylamino)pyrazole-3-carbonitrile [Compound 14]”, the “Death Rate (%)” value in data set [1], in data set [2], in data set [7], in data set [3] and in data set [4] was 100% throughout. For the same compound, the “Death Rate (%) at Each Concentration” value in data set [5] (setting [9]), in data set [5] (setting [10]) and in data set [5] (setting [11]) was 100% throughout. For the same compound, in data set [6], the “Toxicity to fish (%)” value is listed as 0%.
Take `N#Cc1nn(-c2c(Cl)cc(C(F)(F)F)cc2Cl)c(NCc2cnccn2)c1SC(F)(F)F` [V]: the “Death Rate (%) at Each Concentration” value came to 55% in data set [5] (setting [9]), 80% in data set [5] (setting [10]) and 95% in data set [5] (setting [11]). In addition, in data set [6], the “Toxicity to fish (%)” value is given as 100%.
Turning to `N#Cc1nn(-c2c(Cl)cc(C(F)(F)F)cc2Cl)c(NCc2cnccn2)c1[S+]([O-])C(F)(F)F` (stereo not drawn) [Compound 5, 1-(2,6-dichloro-4-trifluoromethylphenyl)-4-trifluoromethylsulfinyl-5-(pyrazin-2-ylmethylamino)pyrazole-3-carbonitrile], the “Death Rate (%)” value in data set [1], in data set [2], in data set [7], in data set [3], in data set [4] and in data set [8] was 100% each time. The “Death Rate (%) at Each Concentration” value in data set [5] (setting [9]), in data set [5] (setting [10]) and in data set [5] (setting [11]) was 100% in each case.
Regarding `N#Cc1nn(-c2c(Cl)cc(C(F)(F)F)cc2Cl)c(N)c1[S+]([O-])C(F)(F)F` (stereo not drawn) [I], the “Death Rate (%) at Each Concentration” value in data set [5] (setting [9]) is recorded as 33%; in data set [5] (setting [10]), 67%; in data set [5] (setting [11]), 92%. Moreover, the “insecticidal activity through systemic property (in words)” value in data set [5] is given as “obviously inferior effect”. In data set [6], the “Toxicity to fish (%)” value worked out at 100%.
For the compound `N#Cc1nn(-c2c(Cl)cc(C(F)(F)F)cc2Cl)c(NCc2ccncc2)c1SC(F)(F)F` [II], the “Death Rate (%) at Each Concentration” value in data set [5] (setting [10]) is 20%; in data set [5] (setting [11]), 50%. Besides, the “insecticidal activity through systemic property (in words)” value in data set [5] is “obviously inferior effect”. In data set [6], the “Toxicity to fish (%)” value worked out at 80%.
As to `N#Cc1nn(-c2c(Cl)cc(C(F)(F)F)cc2Cl)c(NCc2cc[n+]([O-])cc2)c1SC(F)(F)F` [III], the “Death Rate (%) at Each Concentration” value in data set [5] (setting [9]) turned out to be 92%; in data set [5] (setting [10]), 100%; in data set [5] (setting [11]), 100%. Further, the “Toxicity to fish (%)” value in data set [6] is listed as 60%.
In the case of `CSc1c(C#N)nn(-c2c(Cl)cc(C(F)(F)F)cc2Cl)c1NCc1cnccn1` [IV], the “Death Rate (%) at Each Concentration” value in data set [5] (setting [9]), in data set [5] (setting [10]) and in data set [5] (setting [11]) was 100% in each case. For the same compound, in data set [5], the “insecticidal activity through systemic property (in words)” value is recorded as “high systemic property”. In addition, the “Toxicity to fish (%)” value in data set [6] is given as 100%.

The values above are taken from patent US6849633B2, “Pyrazole derivative, production process thereof, and pest control agent containing the same as active ingredient” (Nihon Nohyaku Co., Ltd., priority 1999, dated 2005).
